Test results from US6001850A, “Thienopyridine derivatives, their production and use” (Takeda Chemical Industries, Ltd., priority 1996, dated 1999).
pIC50: −log10 of the molar value.

Biological target: T1, human GnRH receptor (Homo sapiens, UniProt P30968)
T1 construct: expressed in transfected cells; host or cells: CHO (Chinese Hamster Ovary) cells, membrane fraction
T1 sequence (P30968 1-328): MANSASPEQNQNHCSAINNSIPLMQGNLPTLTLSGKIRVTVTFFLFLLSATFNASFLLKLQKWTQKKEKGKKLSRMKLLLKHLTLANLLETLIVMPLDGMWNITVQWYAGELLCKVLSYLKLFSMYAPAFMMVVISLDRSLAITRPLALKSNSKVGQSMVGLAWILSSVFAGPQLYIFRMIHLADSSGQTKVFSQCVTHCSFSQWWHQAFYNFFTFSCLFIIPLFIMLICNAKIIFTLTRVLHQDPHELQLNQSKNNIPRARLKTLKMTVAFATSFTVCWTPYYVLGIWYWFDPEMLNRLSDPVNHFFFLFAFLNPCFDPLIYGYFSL
Test: Determination of inhibitory rate of 125I-leuprorelin binding (membrane fraction of CHO cells expressing human GnRH receptors)
Details: CHO cell membrane expressing human GnRH receptors, 25° C., 60 minutes, Hill plot
Procedure: (1)Preparation of ^125 I-leuprorelin:
Ten μl of 3×10^-4 M aqueous solution of leuprorelin and 10 μl of 0.01 mg/ml lactoperoxidase in 0.1M HEPES buffer (pH 7.4) were taken into a tube, to which was added 10 μl (37 MBq in 0.1 M HEPES buffer (pH7.4)) of an Na^125 I solution. The mixture was stirred, to which was added 10 μl of 0.001% H2O2, then reaction was allowed to proceed for 20 minutes at room temperature. To the reaction mixture was added 700 μl of a 0.05% TFA solution to cease the reaction. The product was purified by means of reversed phase HPLC. Conditions of HPLC are as follows. ^125 I-leuprorelin was eluted at a retention time of 26 to 27 minutes.
(2) Preparation of membrane fraction of CHO (Chinese Hamster Ovary) cells containing human GnRH receptors
CHO cells (10^9) expressing human GnRH receptors were suspended in a phosphate-buffered saline supplemented with 5 mM EDTA (ethylenediamine tetraacetate) (PBS-EDTA). […]
The reaction was allowed to proceed at 25° C. for 60 minutes. […] After completion of the filtration, radioactivity of the ^125 I-leuprorelin remaining on the filter paper was measured with a γ-counter.
By calculation of the following formula, the binding inhibitory rate (PMB, %) of each test compound was determined.
TB: Maximum binding radioactivity.
SB: Radioactivity obtained when a compound was added. […]

## C=C(C)COc1ccc(-c2sc3c(c2CN(C)Cc2ccccc2)c(=O)c(C(=O)C(C)C)cn3Cc2c(F)cccc2F)cc1 [Example 3(4), 2-[4-(2-methyl-2-propen-1-yl-oxy)phenyl]-4,7-dihydro-7-(2,6-difluorobenzyl)-3-(N-benzyl-N-methylaminomethyl)-5-isobutyryl-4-oxothieno[2,3-b]pyridine]
  pIC50: 8.00
